Where “and” joins values, the source holds several entries; their conditions need not be identical. Equal values may be shown once. Read-outs that look alike come from different tables or passages of the source.
Test: Dog PK study #1 (Compound A IV and PO, propylene glycol formulation)
Type: in vivo, beagle dogs
Settings: for Vd: read-out: Vss—obs
Text: The purpose of this study was to examine the pharmacokinetics of Compound A in beagle dogs. Four beagle dog studies were undertaken, one where Compound A was formulated in a propylene glycol based formulation (Dog PK study #1-PO and IV), a second where Compound A was formulated in a HPBCD based formulation (Dog PK study #2-IV), a third where Compound A was formulated in a 5% DMSO/15% PEG-400/80% (10% VE-TPGS) formulation (Dog PK study #3-PO), and a fourth where Compound A was formulated in […]/15% PEG-400/80% (10% VE-TPGS) formulation (Dog PK study #4-PO).
For Dog PK study #1, two solutions of different concentrations of Compound A were prepared in 20% propylene glycol/20% Vitamin E TPGS/60% water as outlined in Table 2A in Experimental Method A. The solutions of Compound A in 20% propylene glycol/20% Vitamin E TPGS/60% water were prepared freshly prior to use. The Compound A solutions administered were then administered to animals either intravenously (IV) or orally (PO) and animals were then monitored over a 24 h period (Table 3B). Body weight was recorded prior to dosing, and detailed clinical observations were made prior to dosing and throughout the study, as needed.
Blood samples (~0.3 mL) were collected according to a schedule (shown below) by venipuncture of peripheral veins except for the dosing vein, and EDTA-K2 was used as anticoagulant. Within 30 minutes of collection, the samples were centrifuged at approximately 2000 times g-force for 10 minutes at 4° C. to obtain blood plasma. The plasma samples were immediately divided into two aliquots (~75 μL each), transferred to a cryogenic vial, and stored in a freezer at −75±15° C. prior to analysis.
Blood samples for IV were collected at 0.083, 0.25, 0.5, 1, 2, 4, 8, 24 h and blood samples for PO were collected at 0.25, 0.5, 1, 2, 4, 8, and 24 h following the initial dosing (0 h).
The concentration of Compound A in the blood plasma was determined through liquid chromatography-mass spectrometry (LC-MS). The experiments were conducted on a Shimadzu HPLC(DGU-20A5R; LC-30AD; SIL-30AC; Rack Changer II; CTO-30A; and CBM-20A) and AB API 5500+LC/MS/MS instrument with an Agilent Poroshell EC-C18 4 μm (50×2.1 mm) column. A gradient of 95% water (0.1% formic acid)/95% acetonitrile (0.1% formic acid) was used as the mobile phase. The sample injection volume was 10 μL, and the flow rate was 0.6 mL/min. The gathered data were used for pharmacokinetic calculations using T1/2, C0, AUClast, AUCinf, MRTinf, Cl, Vss, and Number of Points for Regression as parameters.
The desired serial concentrations of working solutions were achieved by diluting stock solution of analyte with 50% acetonitrile in water solution. 5 μL of working solutions (5, 10, 20, 50, 100, 500, 1000, 5000, 10000 ng/mL) were added to 50 μL of the blank Beagle Dogs plasma to achieve calibration standards of 0.5~1000 ng/ml (0.5, 1, 2, 5, 10, 50, 100, 500, 1000 ng/ml) in a total volume of 55 μL. Five quality control samples at 1 ng/ml, 2 ng/ml, 5 ng/ml, 50 ng/mL and 800 ng/ml for plasma were prepared independently of those used for the calibration curves. These QC samples were prepared on the day of analysis in the same way as calibration standards.
55 μL standards, 55 μL QC samples and 55 μL unknown samples (50 μl plasma with 5 μL blank solution were added to 200 μL of acetonitrile containing IS mixture (verapamil) for precipitating protein respectively. Then the samples were vortexed for 30 s. After centrifugation at 4° C., 3900 rpm for 15 min, the supernatant was diluted 3 times with water. 10 μL of diluted supernatant was injected into the LC/MS/MS system for quantitative analysis.

[1] = IV 1 mg/kg, individual animals, 1 mg/kg
[2] = beagle, dog, plasma, iv, 1 mg/kg, IV 1 mg/kg, individual animals, read-out: Plasma concentration
[3] = beagle, dog, plasma, iv, 1 mg/kg, IV 1 mg/kg, mean, read-out: Average plasma concentration
[4] = beagle, dog, plasma, iv, 1 mg/kg, IV 1 mg/kg, mean
[5] = beagle, dog, plasma, iv, 1 mg/kg, IV 1 mg/kg, individual animals
[6] = beagle, dog, plasma, po, 5 mg/kg, oral 5 mg/kg, individual animals, read-out: Plasma concentration
[7] = beagle, dog, plasma, po, 5 mg/kg, oral 5 mg/kg, mean, read-out: Average plasma concentration
[8] = beagle, dog, plasma, po, 5 mg/kg, oral 5 mg/kg, mean
[9] = beagle, dog, plasma, po, 5 mg/kg, oral 5 mg/kg, individual animals
[10] = oral 5 mg/kg, individual animals, 5 mg/kg

Cn1cc(-c2ccccc2)c(-c2cn(C)c(=O)c3[nH]c(-c4cnn(C(F)(F)F)c4)cc23)cc1=O [Compound A, 6-methyl-4-(1-methyl-2-oxo-5-phenyl-1,2-dihydropyridin-4-yl)-2-(1-(trifluoromethyl)-1H-pyrazol-4-yl)-1,6-dihydro-7H-pyrrolo[2,3-c]pyridin-7-one]
AUClast [1]: 4746 ng·h/mL and 2876 ng·h/mL and 7862 ng·h/mL
AUClast/D [1]: 4746 (ng · h/mL)/(mg/kg) and 2876 (ng · h/mL)/(mg/kg) and 7862 (ng · h/mL)/(mg/kg)
AUClnf [1]: 4892 ng·h/mL and 2944 ng·h/mL and 8955 ng·h/mL
AUC—%Extrap—obs [1]: 2.98% and 2.32% and 12.2%
C0 [1]: 1618 ng/mL and 1767 ng/mL
CI_obs [1]: 3.41 mL/min/kg and 5.66 mL/min/kg and 1.86 mL/min/kg
MRTlnf—obs [1]: 5.21 h and 4.15 h and 10.0 h
T1/2 [1]: 5.23 h and 8.60 h
Vss—obs [1]: 1.41 L/kg and 1.12 L/kg
AUClast/D (IV 1 mg/kg, mean): 5162 (ng · h/mL)/(mg/kg)
AUC—%Extrap—obs (IV 1 mg/kg, mean): 5.8%
CI_obs (IV 1 mg/kg, mean): 3.64 mL/min/kg
MRTlnf—obs (IV 1 mg/kg, mean): 6.5 h
time over which plasma concentration increased after oral administration (PO, all animals): 2 h
concentration at 0.083 h [2]: 1480 ng/mL
concentration at 0.083 h [3]: 1480 ng/mL
concentration at 0.25 h [2]: 1130 ng/mL
concentration at 0.25 h [3]: 1130 ng/mL
concentration at 0.5 h [2]: 971 ng/mL
concentration at 0.5 h [3]: 912 ng/mL
concentration at 1 h [2]: 802 ng/mL
concentration at 1 h [3]: 764 ng/mL
concentration at 2 h [2]: 594 ng/mL
concentration at 2 h [3]: 586 ng/mL
concentration at 4 h [4]: 293 ng/mL
concentration at 8 h [4]: 169 ng/mL
concentration at 24 h [4]: 38.7 ng/mL
half-life [5]: 5.26 h
C0 (beagle, dog, plasma, iv, 1 mg/kg, IV 1 mg/kg, individual animals, read-out: C0): 1690 ng/mL
Vd [5]: 1.06 L/kg
AUC [4]: 5600 ng·h/mL
AUC(0-t) [4]: 5160 ng·h/mL
half-life [4]: 6.37 h
C0 (beagle, dog, plasma, iv, 1 mg/kg, IV 1 mg/kg, mean, read-out: C0): 1690 ng/mL
Vd [4]: 1.2 L/kg
concentration at 0.25 h [6]: 25.1 ng/mL
concentration at 0.25 h [7]: 26.7 ng/mL
concentration at 0.5 h [6]: 147 ng/mL
concentration at 0.5 h [7]: 127 ng/mL
concentration at 1 h [7]: 293 ng/mL
concentration at 2 h [7]: 435 ng/mL
concentration at 4 h [8]: 369 ng/mL
concentration at 8 h [8]: 123 ng/mL
concentration at 24 h [8]: 29.9 ng/mL
AUC [9]: 4520 ng·h/mL
half-life [9]: 4.54 h
AUC [8]: 4270 ng·h/mL
AUC(0-t) [8]: 3500 ng·h/mL
half-life [8]: 4.07 h
Cmax (beagle, dog, plasma, po, 5 mg/kg, oral 5 mg/kg, mean, read-out: Cmax): 435 ng/mL
Tmax (beagle, dog, plasma, oral 5 mg/kg, individual animals): 2 h
AUClast [10]: 4398 ng·h/mL and 2122 ng·h/mL and 3976 ng·h/mL
AUClast/D [10]: 880 (ng · h/mL)/(mg/kg) and 424 (ng · h/mL)/(mg/kg) and 795 (ng · h/mL)/(mg/kg)
AUClnf [10]: 4019 ng·h/mL
AUC—%Extrap—obs [10]: 2.78% and 1.09%
Cmax [10]: 498 ng/mL and 228 ng/mL and 580 ng/mL
F [10]: 16.2% and 8.22% and 14.4%
MRTlnf—obs [10]: 6.47 h and 5.27 h
T1/2 [10]: 3.61 h
AUClast/D (oral 5 mg/kg, mean): 700 (ng · h/mL)/(mg/kg)
AUC—%Extrap—obs (oral 5 mg/kg, mean): 1.93%
F (oral 5 mg/kg, mean): 12.9%
MRTlnf—obs (oral 5 mg/kg, mean): 5.87 h
availability and tolerability (overall statement on the four dog PK studies): IV and orally available and well tolerated

— patent US20260217701A1, “SELECTIVE BET INHIBITORS AND USES THEREOF” (Tay Therapeutics Limited, priority 2022, published 2026)
